Values quoted from earlier work in article PMC2602858 (Cancer epidemiology, biomarkers & prevention : a …, 2008).

Legend:
[1] = humans, plasma
[2] = test system: women; details: I3C 200 and 400 mg twice daily for 4 weeks
[3] = test system: CYP1A2; details: I3C 400 mg twice daily, four weeks
[4] = test system: urinary 2-hydroxyestrone: 16α-hydroxyestrone ratio; details: four weeks

SMILES: OCc1c[nH]c2ccccc12 [I3C, indole-3-carbinol]
- circulating products detected after oral I3C [1]: the only detectable circulating product was DIM
- adverse effects [2]: no adverse effects were reported or observed
- effect on CYP1A2 [3]: marked induction
- change of estrone hydroxylation ratio ([4]; I3C 200 mg twice daily): change in the estrone hydroxylation ratio was obtained
- change of urinary 2-hydroxyestrone: 16α-hydroxyestrone ratio ([4]; I3C 400 mg twice daily): doubling
